# Calls of active or inactive are those of the source. How the calls were made is not given here.
# Target: Peptidyl-prolyl cis-trans isomerase FKBP1A (Homo sapiens) (UniProt P62942)
# Assay: small-molecule binding to FKBP12 – biophysical, NMR detection (AID 608)
# Conditions: purified FKBP12
# Peptidyl-prolyl cis-trans isomerase FKBP1A (Homo sapiens), sequence (P62942 whole entry, looked up): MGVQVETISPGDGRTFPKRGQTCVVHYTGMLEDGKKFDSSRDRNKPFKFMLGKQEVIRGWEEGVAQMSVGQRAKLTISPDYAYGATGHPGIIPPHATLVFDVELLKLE
row,SMILES,Kd
1,COc1cc2c(cc1OC)[C@@H]1C(=O)c3ccc4c(c3O[C@@H]1CO2)CC(C(C)C)O4 (some centres undefined),> 4 mM (inactive)
2,CC(=O)Nc1nnc(-c2ccccc2S(C)(=O)=O)o1,> 4 mM (inactive)
3,Nc1cc(=O)[nH]c(SCC(=O)NCc2ccccc2)n1,> 4 mM (inactive)
4,O=c1ccc(=O)n(CN2CCc3ccccc3C2)[nH]1,> 4 mM (inactive)
5,O=C(NN1C(=O)C2C3C=CC(C3)C2C1=O)C1CC=CCC1 (centres undefined),> 4 mM (inactive)
6,OCc1ccncc1,> 4 mM (inactive)
7,OCc1ccc(CN2CCOCC2)cc1,> 4 mM (inactive)
8,COCC(=O)/C=C1\Sc2ccccc2N1C,> 4 mM (inactive)
9,COC(=O)CC1SC(=O)NC1=O (centres undefined),> 4 mM (inactive)
10,Cc1[nH]c2ccccc2c1C=Nn1cncn1,> 4 mM (inactive)
11,Nc1cccc(NC(=O)c2ccco2)c1,> 4 mM (inactive)
12,Cn1ncc(CO)c1-c1ccccc1,> 4 mM (inactive)
13,COC(=O)[C@H]1[C@H]2C[C@H]3c4[nH]c5ccccc5c4CCN3C[C@H]2CC[C@@H]1O,> 4 mM (inactive)
14,Nc1nc(-c2cccnc2)nn1C(=O)Cc1ccccc1,> 4 mM (inactive)
15,Cn1c(CN2CC(c3ccccc3)CC2=O)n[nH]c1=S (centres undefined),> 4 mM (inactive)
16,O=C(c1ccc(F)cc1)C1CCNCC1,> 4 mM (inactive)
17,O[C@H]1C=C2CCN3Cc4cc5c(cc4C(C23)[C@@H]1O)OCO5 (some centres undefined),> 4 mM (inactive)
18,OC12CC3CC(C1)C1(NCCS1)C(C3)C2 (centres undefined),> 4 mM (inactive)
19,O=C(Nc1ccccc1)c1cccc(N2C(=O)CCC2=O)c1,> 4 mM (inactive)
20,O=C1NC(=O)C(=Cc2ccccc2)C(=O)N1,> 4 mM (inactive)
21,Cc1cc(C)n(CC(=O)O)n1,> 4 mM (inactive)
22,CN1CCN(C(=O)c2ccco2)CC1,> 4 mM (inactive)
23,O=c1c(O)c(-c2ccc(O)cc2O)oc2cc(O)cc(O)c12,> 4 mM (inactive)
24,Cc1nnc(NCc2cccnc2)[nH]c1=O,> 4 mM (inactive)
25,O=c1/c(=C/c2ccccc2F)sc2ncnn12,> 4 mM (inactive)

row,SMILES,Kd
1,O=C1NC2NC(=O)N(c3ccccc3)C2N1 (centres undefined),> 4 mM (inactive)
2,CC1(C)C2C[C@@H](O)[C@]3(C)C(CC[C@@]4(C)[C@H](c5ccoc5)OC(=O)[C@H]5O[C@]543)[C@@]2(C)[C@@H](O)C[C@H]1O (some centres undefined),> 4 mM (inactive)
3,Cc1nnsc1-c1onc(C)c1C(=O)O,> 4 mM (inactive)
4,Nc1nc(-c2ccccc2)ns1,> 4 mM (inactive)
5,O=C(Nc1nc2ccccc2s1)c1ccc(=O)[nH]n1,> 4 mM (inactive)
6,CCSc1nc2ccccc2[nH]1,> 4 mM (inactive)
7,O=C1CCCc2c(O)cccc21,> 4 mM (inactive)
8,Cc1cc(NC(=O)CSc2ccnc(=O)[nH]2)no1,> 4 mM (inactive)
9,N/N=C/c1cccnc1,> 4 mM (inactive)
10,O=C(/C=C/c1ccc(O)c(O)c1)O[C@@H]1C[C@](O)(C(=O)O)C[C@@H](O)[C@H]1O,> 4 mM (inactive)
11,CN(Cc1nc2ccccc2n1C)S(C)(=O)=O,> 4 mM (inactive)
12,COc1cccc(C(=O)N2CCOCC2)c1,> 4 mM (inactive)
13,O=S(=O)(Cc1ccc(Cl)cc1)N1CCCC1,> 4 mM (inactive)
14,COC(=O)c1ccccc1C,> 4 mM (inactive)
15,CC(=O)OCC[C@H](C)CCC=C(C)C,> 4 mM (inactive)
16,Cc1nn2c(nc1=O)SCC(c1ccccc1)=N2,> 4 mM (inactive)
17,OCC1CCCC1O (centres undefined),> 4 mM (inactive)
18,Clc1ccc(-n2ccnc2)nn1,> 4 mM (inactive)
19,O=S1(=O)C=CC(N2CCCCC2)C1 (centres undefined),> 4 mM (inactive)
20,OC(c1ccccc1)c1ccccn1 (centres undefined),> 4 mM (inactive)
21,COc1cc2c(c(OC)c1OC)-c1ccc(OC)c(=O)cc1[C@@H](NC(C)=O)CC2,> 4 mM (inactive)
22,COc1ccc(-c2cc(=O)c3cc(OC)ccc3o2)cc1,> 4 mM (inactive)
23,COCc1c(CN)cnc(C)c1N,> 4 mM (inactive)
24,CC1(C(=O)O)CC2C=CC1C2 (centres undefined),> 4 mM (inactive)
25,CN1CCN(C(=O)Nc2cccc3ccccc23)CC1,> 4 mM (inactive)

row,SMILES,Kd
1,CCC(/C=C/[C@@H](C)[C@H]1CCC2C3CC=C4C[C@@H](O)CC[C@]4(C)C3CC[C@@]21C)C(C)C (some centres undefined),> 4 mM (inactive)
2,C=C(C)CSc1nc2nc(C)cc(C)n2n1,> 4 mM (inactive)
3,O=c1cc(-c2cc(O)c(O)c(O)c2)oc2cc(O)cc(O)c12,> 4 mM (inactive)
4,CCOc1ccc(C)cc1S(=O)(=O)n1ccc(C)n1,> 4 mM (inactive)
5,OCc1ccc2c(c1)OCCO2,> 4 mM (inactive)
6,O=C(O)c1ccc(N2CCOCC2)cc1,> 4 mM (inactive)
7,O=CN1CCN(C2CC(=O)N(c3ccccc3)C2=O)CC1 (centres undefined),> 4 mM (inactive)
8,Cc1ccc(Cl)cc1NS(=O)(=O)N1CCCCC1,inactive
9,CNc1nc(OC)nc(N2CCOCC2)n1,> 4 mM (inactive)
10,c1ccc2c(c1)nc(-c1cscn1)n2Cc1ccc(-c2nn[nH]n2)cc1,inactive
11,C=C1C(=O)O[C@@H]2C[C@@]3(C)CCC[C@H](C)C3=C[C@H]12,> 4 mM (inactive)
12,OCC1CN(Cc2ccccc2)CCO1 (centres undefined),> 4 mM (inactive)
13,c1ccc(-c2noc(-c3cccnc3)n2)nc1,> 4 mM (inactive)
14,Cc1cc(N2C(=O)CCC2=O)n(-c2ccccc2)n1,> 4 mM (inactive)
15,Nc1cccnc1Oc1ccc(F)cc1F,> 4 mM (inactive)
16,O=C1C[C@@H](c2ccccc2)Oc2cc(O)cc(O)c21,> 4 mM (inactive)
17,Cn1cc(Cl)c(C(=O)Nc2ccc(F)cc2F)n1,> 4 mM (inactive)
18,CCP(=O)(CC)c1cccc(C)c1,> 4 mM (inactive)
19,CCn1c2ccccc2c2nn(C)c(=N)nc21,> 4 mM (inactive)
20,O=C(Nc1ccncc1)c1c(F)cccc1F,> 4 mM (inactive)
21,COc1ccc2nc(SCC(N)=O)[nH]c2c1,> 4 mM (inactive)
22,O=[n+]1c(CO)c(CO)n([O-])c2ccccc21,> 4 mM (inactive)
23,CCCSc1nnc2[nH]c(=O)cc(N)n12,> 4 mM (inactive)
24,O=C(O)Cc1c[nH]c2ccccc12,> 4 mM (inactive)
25,CCCCNS(=O)(=O)c1ccc(OCC(=O)N2CCOCC2)cc1,inactive

row,SMILES,Kd
1,Oc1ccccc1N1CCOCC1,> 4 mM (inactive)
2,Cn1ccc(C(=O)NC(=S)NN2CCOCC2)n1,> 4 mM (inactive)
3,Cc1ccc2c(c1)CCCN2C(=O)c1ccncc1,> 4 mM (inactive)
4,Cc1cccc(N2C(=O)CCC2=O)n1,> 4 mM (inactive)
5,NCc1ccc2c(c1)OCCO2,> 4 mM (inactive)
6,COc1ccc(S(=O)(=O)N2CCOCC2)cc1C(C)C,> 4 mM (inactive)
7,O=C1C=CC2=C3c4cc(O)c(O)cc4CC3(O)COC2=C1O (centres undefined),> 4 mM (inactive)
8,CC(C)=CCOc1cc2oc(=O)ccc2cc1O,> 4 mM (inactive)
9,O=NN1C(=O)c2ccccc2C1=O,> 4 mM (inactive)
10,O=CN1CCN(C(=O)c2ccccc2F)CC1,> 4 mM (inactive)
11,Cc1noc(C)c1C(=O)Nc1ccc2c(c1)CCC2,> 4 mM (inactive)
12,COc1ccc(-c2nnc(-c3ccc(N)cc3)o2)cc1,> 4 mM (inactive)
13,O=C(c1cccnc1Cl)N1CCOCC1,> 4 mM (inactive)
14,CNC(=O)c1cccc(NC(=S)NC)c1,> 4 mM (inactive)
15,CNc1nnc(Cc2csc(N)n2)s1,> 4 mM (inactive)
16,CC1(C)C(=O)N(O)C(C)(C)C(=O)N1O,> 4 mM (inactive)
17,Nc1cc(C(F)(F)F)ccc1N1CCOCC1,> 4 mM (inactive)
18,COc1ccc(N2C(=N)C(C)(C)NC2=O)cc1,> 4 mM (inactive)
19,Cn1cnc2cc(NC(=O)c3ccco3)ccc21,> 4 mM (inactive)
20,Cc1cc(C)n2nc(N)nc2n1,> 4 mM (inactive)
21,CC(=O)O[C@H]1CCC2(C)C3=C(CCC2C1(C)C)[C@]1(C)CCC(C(C)CCC=C(C)C)[C@@]1(C)CC3 (some centres undefined),> 4 mM (inactive)
22,Nc1ccccc1C(=O)N1CCOCC1,> 4 mM (inactive)
23,NC1=NC(=O)C(Cc2ccccc2)S1 (centres undefined),> 4 mM (inactive)
24,CNC(=O)CC1Sc2ccccc2NC1=O (centres undefined),> 4 mM (inactive)
25,O=C(CSc1ccccc1)N1CCOCC1,0.0235 mM

row,SMILES,Kd
1,Nc1cc(=O)[nH]c(=S)n1-c1ccc(F)cc1,> 4 mM (inactive)
2,C=C[C@H]1CN2CC[C@H]1C[C@H]2[C@H](O)c1ccnc2ccccc12,> 4 mM (inactive)
3,O=c1[nH]cc(S(=O)(=O)N2CCc3ccccc32)c(=O)[nH]1,> 4 mM (inactive)
4,CN(C)S(=O)(=O)c1ccc(N2CCOCC2)nc1,> 4 mM (inactive)
5,NC(=O)CC1NC(=O)c2ccccc21 (centres undefined),> 4 mM (inactive)
6,OCc1ccc2c(c1)OCCCO2,> 4 mM (inactive)
7,NCc1ccc(-n2cccc2)cc1,> 4 mM (inactive)
8,O=c1cnnc(SCCc2ccccc2)[nH]1,> 4 mM (inactive)
9,NCc1csc2ccccc12,> 4 mM (inactive)
10,O=C(Nc1ccon1)c1cccc(C(F)(F)F)c1,> 4 mM (inactive)
11,CSc1ccc(/C=N/n2c(C)nnc2C)cc1,> 4 mM (inactive)
12,CC(=O)c1c(C)nc(C)nc1NC(=O)C(C)C,> 4 mM (inactive)
13,O=C(O)CCCN1CNC(=S)NC1,> 4 mM (inactive)
14,O=C(Nc1ccc2c(c1)OCO2)c1cnn2cccnc12,> 4 mM (inactive)
15,CC(=O)c1c(C)n(O)c2ccc3nonc3c12,> 4 mM (inactive)
16,Cc1ccc(NC(=O)c2ccccc2)s1,> 4 mM (inactive)
17,CN1C2CC3C[C@H]1C(O3)C2O (some centres undefined),> 4 mM (inactive)
18,O=S(=O)(N1CCOCC1)n1cnc2ccccc21,inactive
19,O=C(Nc1ccncc1)c1cncc(Br)c1,> 4 mM (inactive)
20,CC1CCC(N2CCN(c3ncccn3)CC2)CC1 (centres undefined),> 4 mM (inactive)
21,Cc1cc2ncc(C(=O)Nc3ccccc3)c(C)n2n1,inactive
22,OCc1ccccc1N1CCOCC1,> 4 mM (inactive)
23,CS/C(N)=C\C(C)=O,> 4 mM (inactive)
24,C=Cc1c(C)c2cc3[nH]c(cc4nc(cc5nc(cc1[nH]2)C(C)=C5CCC(=O)O)C(CCC(=O)O)=C4C)c(C)c3C=C,> 4 mM (inactive)
